The text below walks through data of publication PMC4931907 (eLife, 2016).

As usually defined, the pIC50 is −log10 of the IC50, conventionally taken in molar units.

For this assay, the target named is T1, p300 (Homo sapiens, UniProt Q09472).
T1 construct: in vitro acetylation assays with purified histones and a recombinant p300 catalytic domain; purchased Enzo Life Sciences
T1 sequence (Q09472 1287-1663 limits assumed): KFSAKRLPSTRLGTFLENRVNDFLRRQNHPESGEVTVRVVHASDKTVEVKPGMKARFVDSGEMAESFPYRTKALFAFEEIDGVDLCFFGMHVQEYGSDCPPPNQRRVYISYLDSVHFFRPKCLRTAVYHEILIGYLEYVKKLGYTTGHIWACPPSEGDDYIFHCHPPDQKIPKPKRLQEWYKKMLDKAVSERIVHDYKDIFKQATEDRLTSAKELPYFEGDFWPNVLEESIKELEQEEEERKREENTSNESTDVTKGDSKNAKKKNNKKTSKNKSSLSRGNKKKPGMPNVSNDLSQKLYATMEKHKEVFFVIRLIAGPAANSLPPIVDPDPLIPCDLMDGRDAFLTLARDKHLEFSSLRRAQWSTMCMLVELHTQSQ
As to the kind of experiment: p300 inhibition by direct microfluidic mobility shift analysis, H4(3–14) peptide. The settings on record: microfluidic mobility shift, H4(3–14) peptide, 5 μM acetyl-CoA. The format is biochemical. The protocol:
Figure 1. Salicylate inhibits CBP/p300 in vitro. (A) Recombinant p300, CBP, GCN5, or PCAF and histones were incubated with ^14C-labeled acetyl-CoA with or without sodium salicylate, separated by SDS-PAGE, analyzed by autoradiography, and quantified with Image J software. Acetylation levels are relative to those in untreated controls. (B) Thermal stability assay for sodium salicylate binding to the p300 HAT domain. Tm, melting temperature. (C) and (D) Lineweaver-Burk plots showing kinetic analysis of p300 acetyltransferase inhibition by sodium salicylate. Histone acetylation was measured with several concentrations of acetyl-CoA (C) or histone (D) in the presence or absence of sodium salicylate. DOI: http://dx.doi.org/10.7554/eLife.11156.003 Figure 1—figure supplement 1. […] (A) Dose-response data for inhibition of p300 by salicylate and salicyl-CoA. Acetylation of an H4(3–14) peptide was monitored using direct microfluidic mobility shift analysis as previously described ([Montgomery et al., 2014]; [Fanslau et al., 2010]). Error is given as the 95% confidence interval. […] Error is given as the 95% confidence interval. DOI: http://dx.doi.org/10.7554/eLife.11156.004 [drawing 1] TEXT PRINTED IN THE PICTURE: (A) Salicylate: p300 IC50 (mM): 6.12; Confidence Interval [CI95] (mM): 5.2–7.2 | (A) Salicyl-CoA: p300 IC50 (mM): […]; Confidence Interval [CI95] […] (mM): 0.78–1.4 | (B) Diflunisal-CoA: p300 IC50 (mM): 0.02; Confidence Interval [CI95] (mM): 0.02–0.03
Salicyl-CoA and diflunisal-CoA were synthesized from their parent carboxylic acids and HPLC purified according to previously reported methods ([Padmakumar et al., 1997]). The purity of each acyl-CoA was confirmed by analytical HPLC prior immediately prior to utilization ([Montgomery et al., 2014]; [Fanslau et al., 2010]). P300 inhibition assays were performed using direct microfluidic mobility shift analysis as previously described. Briefly, p300 reaction mixture (50 mM HEPES, pH 7.5, 50 mM NaCl, 2 mM EDTA, 2 mM DTT, 0.05% Triton-X-100, 50 nM p300, 2 μM FITC-histone H4 peptide) was plated in 384-well plates and allowed to equilibrate at room temperature for 10 min. Reactions were initiated by addition of acetyl-CoA (final concentration = 5 μM), bringing the final assay volume to 30 μL. Assays were quenched after 10 min (<15% product accumulation) by addition of 5 μL of 0.5 M neutral hydroxylamine and transferred to a Perkin-Elmer Lab-Chip EZ-Reader instrument for analysis. Separation conditions were: downstream voltage of −500 V, upstream voltage of −2500 V, and a pressure of −1.5 psi. Percent conversion was calculated by ratiometric measurement of substrate/product peak heights. Percent activity represents the percent conversion of KAT reactions treated with inhibitors relative to untreated control KAT reactions, and corrected for nonenzymatic acetylation. Dose-response analysis of p300 inhibition was performed in triplicate and analyzed by nonlinear least-squares regression fit to Y = 100/(1 + 10∧(Log IC50 – X)*H), where H = Hill slope (variable). IC50 values represent the concentration that inhibits 50% of KAT activity. Calculations were performed using Prism 6 (GraphPad) software.

pIC50: −log10 of the molar value.

Regarding `O=C(O)c1cc(-c2ccc(F)cc2F)ccc1O` [diflunisal], the pIC50 was 2.98. Regarding `O=C(O)c1ccccc1O` [salicylate, salicylic acid], the pIC50 was 2.21.
